According to patent publication US20250108034A1, “EYE DROP FORMULATION” (priority 2021, published 2025):

Experiments:
[1] = Ex vivo corneal drug permeation with Raman mapping; type: in vitro ADME, porcine; conditions: after 15 min treatment, compared to 5 min treatment
Procedure: The ex vivo penetration of ASP was examined with HPLC and Raman microscopy. Freshly donated porcine eyes obtained from the slaughterhouse was placed on a sterile cotton wool bed moistened with physiological saline solution and kept in refrigerator box during the transportation. The porcine eye was placed into a Teflon cell, where the cornea was uncovered and surrounded by a Teflon ring to prevent the flow of eye drops. The cornea was instilled with 1000 μL of physiological saline solution and 50 μL of ASP-CD formulation was added to the covering saline solution, which can imitate physiological dilution caused by tear fluid and incubated at 35° C. […] ASP content in the residual solution, aqueous humour and cornea was determined with HPLC. The corneal retention of AS was calculated according to Eq. 2., whereas apparent permeability by using the following equation: […]
Raman mapping was carried out to examine the distribution of selected ASP-CD formulation and initial ASP on porcine cornea. […] For localization of permeated formulation, the Raman spectra of ASP was set as profile, whose frequency of occurrence was determined by measuring the relative intensity of ASP in the Raman maps with ImageJ 1.4 software (National Institutes of Health, Bethesda, MD, USA).

[2] = Stability study (shelf-life) of ASP and ASP-CD complexes in physiological saline; type: physicochemical; conditions: for Shelf-life (t90%): physiological saline
Procedure: The determination of ASP concentration was performed with HPLC using an Agilent 1260 (Agilent Technologies, Santa Clara, USA). As stationary phase a Zorbax Eclipse© C18 column 100×4.6 mm, 5 μm (Phenomenex, Torrance, CA, USA) was applied. Isocratic elution with purified water and methanol 10:90 (v/v) was applied for 6 min at a flow rate of 1.0 mL/min at 25° C. 10 μL of the samples were injected to determine the ASP concentration. The chromatograms were detected at 255 nm using UV-VIS diode array detector. Data were evaluated using ChemStation B.04.03. Software (Agilent Technologies, Santa Clara, USA). […] Chemical stability of ASP and ASP-CD complexes was investigated in physiological saline at room condition (25±0.5° C.) and cold place condition (4±0.5° C.) for 5 days. Actual drug content was quantified using HPLC in predetermined time intervals to predict shelf-life of formulations.

[3] = tested on: conjunctival and corneal surface of rabbit eyes; conditions: in vivo
[4] = tested on: conjunctival and corneal surface of rabbit eyes; experiment: Ocular administration of cyclodextrins to rabbit eyes (irritation/tolerability); conditions: concentrations of 5 and 12.5%

## CCCCCCCCCCCCCCCC(=O)OC[C@H](O)[C@H]1OC(=O)C(O)=C1O [ASP, L-Ascorbic acid 6-palmitate]
[1]
  Relative intensity of ASP in Raman maps: increased
[2]; stored at 4° C.
  Shelf-life (t90%): 4.58 h
[2]; stored at 25° C.
  Shelf-life (t90%): 8.37 h

## CC(O)COC[C@H]1O[C@@H]2O[C@H]3[C@H](O)[C@@H](O)[C@@H](O[C@H]4[C@H](O)[C@@H](O)[C@@H](O[C@H]5[C@H](O)[C@@H](O)[C@@H](O[C@H]6[C@H](O)[C@@H](O)[C@@H](O[C@H]7[C@H](O)[C@@H](O)[C@@H](O[C@H]8[C@H](O)[C@@H](O)[C@@H](O[C@H]1[C@H](O)[C@H]2O)O[C@@H]8COCC(C)O)O[C@@H]7COCC(C)O)O[C@@H]6COCC(C)O)O[C@@H]5COCC(C)O)O[C@@H]4COCC(C)O)O[C@@H]3COCC(C)O (stereo partly drawn) [HPBCD, (2-Hydroxypropyl)-beta-cyclodextrin]
[3]
  Ocular tolerability: well tolerated

## benzalkonium chloride [BC]
[2]; 0.004 and 0.008% BC
  Effect of BC on the shelf-life: no significant effect

## randomly substituted methyl-beta-cyclodextrin [RAMEB]
[4]
  Ocular irritation: irritating
